Experimental data reported in US9867831B2, “Combination treatment of acute myeloid leukemia and myelodysplastic syndrome” (Boehringer Ingelheim International GmbH, priority 2014, dated 2018).

Tested on: human AML cell line MV4;11
Experiment: Nude mouse xenograft model derived from human AML cell line MV4;11 (tumor growth)
Assay type: in vivo
Settings: MV4;11 s.c. xenograft in nude mice; Volasertib 20 mg/kg once a week i.v., Quizartinib 5 or 10 mg/kg daily p.o.; treated 14 days, observation without treatment up to day 87
Experimental: Median tumor volumes are plotted over time. Day 1 was the first day, day 87 the last day of the experiment.
MV4;11 (CRL-9591) cells were obtained from ATCC. […] Cells were cultured in T175 tissue culture flasks at 37° C. and 5% CO2. The medium used was IMDM supplemented with 10% fetal calf serum, 1% NEAA, 1% sodium pyruvate and 1% glutamine.
Mice were 8 week-old athymic female BomTac: NMRI-Foxn1^nu purchased from Taconic, Denmark. After arrival in the animal facility, mice were allowed to adjust to ambient conditions for at least 3 days before they were used for experiments. They were housed in Macrolon® type II cages in groups of 5 under standardized conditions at 21.5±1.5° C. temperature and 55±10% humidity. Standardized diet (PROVIMI KLIBA) and autoclaved tap water were provided ad libitum.
To establish subcutaneous tumors, MV4;11 cells were harvested and resuspended in PBS+5% FCS at 5×10^7 cells/ml. 50 μl of the cell suspension containing 2.5×10^6 cells was then injected subcutaneously into the right flank of the mice (1 site per mouse). […]
The tumor diameter was measured three times a week with a caliper. The volume of each tumor [in mm^3] was calculated according to the formula “tumor volume=length*diameter^2*π/6”. To monitor side effects of treatment, mice were inspected daily for abnormalities and body weight was determined three times a week. […]

CC(C)(C)c1cc(NC(=O)Nc2ccc(-c3cn4c(n3)sc3cc(OCCN5CCOCC5)ccc34)cc2)no1 [Quizartinib]
tumor growth kinetics (median tumor volumes over time): outgrowth of the tumor
